Data reported in patent US20160297830A1, “NOVEL COMPOUNDS USEFUL FOR THE TREATMENT OF BACTERIAL INFECTIOUS DISEASES” (GALAPAGOS NV, priority 2013, published 2016).
Values after ≈ are worked out from the molar mass of the structure shown. Like-named read-outs stand apart in the source and are kept apart here.

How the values were obtained:
[1] = test system: S. aureus Sa26 ATCC 25923; experiment: Antibacterial activity assay (MIC), S. aureus Sa26; assay type: cell-based; conditions: Staphylococcus aureus
[2] = test system: S. aureus Sa2 clinical strain NCIMB 41953, MRSA; experiment: microbe, parasite or virus in culture; assay type: cell-based; conditions: Staphylococcus aureus, read-out: MIC Sa2
[3] = test system: E. coli Ec50 efflux pump KO; experiment: microbe, parasite or virus in culture; assay type: cell-based; conditions: Escherichia coli, read-out: MIC Ec50 efflux pump KO
[4] = test system: H. influenza Hi106 ATCC 51907; experiment: organism not typed; assay type: cell-based; conditions: read-out: MIC Hi106
E. coli Ec1 ATCC 25922 = experiment: Antibacterial activity assay (MIC), E. coli Ec1; assay type: cell-based; conditions: Escherichia coli
[5] = test system: H. influenza Hi47 clinical strain, Ampicillin Resistant; experiment: organism not typed; assay type: cell-based; conditions: read-out: MIC Hi47
S. aureus Sa1 ATCC 13709 = experiment: microbe, parasite or virus in culture; assay type: cell-based; conditions: Staphylococcus aureus
[6] = test system: E. coli Ec113 efflux pump KO; experiment: microbe, parasite or virus in culture; assay type: cell-based; conditions: Escherichia coli, read-out: MIC Ec113 efflux pump KO
[7] = test system: H. influenza Hi3 ATCC 31517; experiment: organism not typed; assay type: cell-based; conditions: read-out: MIC Hi3
S. aureus Sa4 NCTC 6571 = experiment: Antibacterial activity assay (MIC), S. aureus Sa4; assay type: cell-based; conditions: Staphylococcus aureus
DNA III Polymerase E = DNA III Polymerase E (Escherichia coli, UniProt P10443); experiment: In vitro activity against DNA III Polymerase E, E. coli; assay type: biochemical; conditions: DNA polymerase III, E. coli; read-out: IC50 semiquantitative scoring, E. coli
Chain of DNA III Polymerase E (P10443 whole entry): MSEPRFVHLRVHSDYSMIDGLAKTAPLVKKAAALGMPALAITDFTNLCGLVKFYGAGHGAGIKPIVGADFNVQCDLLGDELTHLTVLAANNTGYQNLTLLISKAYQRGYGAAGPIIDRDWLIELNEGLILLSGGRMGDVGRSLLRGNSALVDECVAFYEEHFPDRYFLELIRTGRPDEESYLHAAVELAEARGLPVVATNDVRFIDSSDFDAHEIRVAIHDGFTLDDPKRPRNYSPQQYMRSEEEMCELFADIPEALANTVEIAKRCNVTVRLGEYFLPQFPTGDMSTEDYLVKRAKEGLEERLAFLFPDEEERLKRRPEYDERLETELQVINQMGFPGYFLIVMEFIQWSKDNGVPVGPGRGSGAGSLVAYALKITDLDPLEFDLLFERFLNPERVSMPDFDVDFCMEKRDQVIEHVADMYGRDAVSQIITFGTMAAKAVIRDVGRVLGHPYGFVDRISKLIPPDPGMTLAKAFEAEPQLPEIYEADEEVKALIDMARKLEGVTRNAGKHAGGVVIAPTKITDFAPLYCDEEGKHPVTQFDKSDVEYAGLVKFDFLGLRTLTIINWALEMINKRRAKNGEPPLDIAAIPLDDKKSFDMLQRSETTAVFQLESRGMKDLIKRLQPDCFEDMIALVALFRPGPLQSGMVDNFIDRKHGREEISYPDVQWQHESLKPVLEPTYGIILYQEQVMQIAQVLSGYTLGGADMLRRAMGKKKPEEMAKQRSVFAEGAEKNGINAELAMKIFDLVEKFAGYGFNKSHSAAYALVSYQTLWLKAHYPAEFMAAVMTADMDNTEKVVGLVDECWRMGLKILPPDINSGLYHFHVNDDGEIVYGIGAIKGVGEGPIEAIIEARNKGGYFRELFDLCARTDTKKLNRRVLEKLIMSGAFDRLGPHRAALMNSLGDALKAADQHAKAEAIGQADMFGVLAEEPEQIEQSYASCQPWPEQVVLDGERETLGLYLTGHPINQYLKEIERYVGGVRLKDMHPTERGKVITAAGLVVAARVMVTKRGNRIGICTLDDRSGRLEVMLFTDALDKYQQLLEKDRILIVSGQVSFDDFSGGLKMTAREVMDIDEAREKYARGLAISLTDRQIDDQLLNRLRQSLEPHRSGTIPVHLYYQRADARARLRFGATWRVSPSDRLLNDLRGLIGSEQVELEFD
In short: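 Recombinant enzyme (0.47 μg/mL diluted stock) in 20 mM Tris pH7.5, 8 mM DTT, 10 mM MgOAc, 0.05% CHAPS met compound series from 100 μM top, 1/5 steps. Activated calf thymus DNA, dNTPs and [α-33P]-dTTP substrate were added, and incubation ran 120 min at 30° C. IC50 came from filter-captured incorporated radioactivity versus controls.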

[8] = test system: Methicillin Resistant S. aureus (MRSA); experiment: Neutropenic mouse thigh infection model; conditions: Thigh Sa
[9] = test system: H. influenza Hi10 clinical strain; experiment: organism not typed; assay type: cell-based; conditions: read-out: MIC Hi10
[10] = biological target: DNA Polymerase IIIα (DnaE) from Staphylococcus aureus (Staphylococcus aureus, UniProt Q6GG04); experiment: biochemical
Chain of DNA Polymerase IIIα (DnaE) from Staphylococcus aureus (Q6GG04 1-1022): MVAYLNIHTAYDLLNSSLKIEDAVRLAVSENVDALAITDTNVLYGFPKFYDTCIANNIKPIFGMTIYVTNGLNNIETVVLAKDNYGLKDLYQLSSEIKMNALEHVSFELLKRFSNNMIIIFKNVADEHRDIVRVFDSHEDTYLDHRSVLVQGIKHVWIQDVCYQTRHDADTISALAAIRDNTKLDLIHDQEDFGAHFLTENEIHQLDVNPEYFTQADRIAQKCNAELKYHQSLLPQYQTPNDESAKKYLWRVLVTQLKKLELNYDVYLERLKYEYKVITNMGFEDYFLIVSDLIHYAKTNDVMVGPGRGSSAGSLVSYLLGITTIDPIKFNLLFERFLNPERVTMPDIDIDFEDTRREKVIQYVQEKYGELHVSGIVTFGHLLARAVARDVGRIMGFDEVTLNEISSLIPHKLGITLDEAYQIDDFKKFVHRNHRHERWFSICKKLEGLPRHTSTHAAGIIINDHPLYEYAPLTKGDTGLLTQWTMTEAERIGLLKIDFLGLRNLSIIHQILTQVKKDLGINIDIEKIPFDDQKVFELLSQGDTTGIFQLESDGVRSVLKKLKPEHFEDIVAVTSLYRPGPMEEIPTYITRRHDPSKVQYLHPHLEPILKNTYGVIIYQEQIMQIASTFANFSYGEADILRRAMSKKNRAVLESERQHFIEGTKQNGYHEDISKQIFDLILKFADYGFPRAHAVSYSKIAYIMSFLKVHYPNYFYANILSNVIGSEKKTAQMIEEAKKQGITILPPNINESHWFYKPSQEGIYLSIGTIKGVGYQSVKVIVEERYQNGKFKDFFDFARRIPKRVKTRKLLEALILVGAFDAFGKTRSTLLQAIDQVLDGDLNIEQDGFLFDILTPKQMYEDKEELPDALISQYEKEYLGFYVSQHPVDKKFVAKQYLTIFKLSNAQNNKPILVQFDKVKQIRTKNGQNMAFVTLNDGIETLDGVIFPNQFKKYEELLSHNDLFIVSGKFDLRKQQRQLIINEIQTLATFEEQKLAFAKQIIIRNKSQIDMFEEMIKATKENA

[11] = test system: Methicillin Resistant S. aureus Sa2 (MRSA); experiment: animal or person; assay type: in vivo; conditions: for log reduction at 50 mg/kg: Staphylococcus aureus, MRSA, in Mus musculus
[12] = test system: Methicillin Resistant S. aureus Sa2 (MRSA); assay type: in vivo; conditions: Groin Sa, sample time 31 h post infection
[13] = Study 1, 100 mg/kg IP BID, sample time 7 h PI
[14] = Study 1, 50 mg/kg PO BID, sample 24 h post infection, lung
[15] = Study 1, 50 mg/kg SC BID, sample time 7 h PI
[16] = Study 2, 50 mg/kg SC BID, sample time 7 h PI
[17] = Study 3, 50 mg/kg SC BID, sample time 7 h PI
[18] = Study 4, 15 mg/kg SC BID, sample time 24 h PI
[19] = Study 5, 50 mg/kg SC BID, sample time 24 h PI
[20] = Study 8, 50 mg/kg SC QD, sample time 48 h PI

## COC[C@H]1[C@@H](O)[C@@H]2O[C@@]34/C(C)=C/[C@@H](C)[C@@H]([C@H](O)COC)OC(=O)[C@H](COC)[C@H]3C=C[C@@H]2[C@H]4[C@@H]1O [Branimycin, reference compound]
[1]; ATCC25923, read-out: MIC Sa26
  MIC: 64 µg/mL (≈ 133 µM)
[1]; ATCC25923, read-out: MIC Sa26 + 10% SH
  MIC: 64 µg/mL
[1]; ATCC25923, read-out: MIC Sa26 + 50% SH
  MIC: 64 µg/mL
[2]
  MIC: 64 µg/mL (≈ 133 µM)
[3]
  MIC: 8 µg/mL (≈ 16.6 µM)
[4]
  MIC: > 64 µg/mL
E. coli Ec1 ATCC 25922; ATCC25922, read-out: MIC Ec1
  MIC: > 64 µg/mL
[5]
  MIC: > 64 µg/mL
S. aureus Sa1 ATCC 13709; ATCC13709, read-out: MIC Sa1
  MIC: 64 µg/mL (≈ 133 µM)
[6]
  MIC: 1 µg/mL (≈ 2.07 µM)
[7]
  MIC: > 64 µg/mL
S. aureus Sa4 NCTC 6571; NCTC6571, read-out: MIC Sa4
  MIC: 64 µg/mL (≈ 133 µM)
DNA III Polymerase E
  IC50: 2.07 to 20.7 µM
[8]; [13]
  Active: N
  Log reduction vs. untreated: −0.3
[9]
  MIC: > 64 µg/mL
[10]
  IC50: 2.07 to 2070 nM

## COCC(=NO)[C@H]1OC(=O)[C@H](COC)[C@H]2C=C[C@H]3[C@H]4O[C@]2(/C(C)=C/[C@H]1C)[C@@H]3[C@H](O)[C@@H](COC)[C@H]4OC(=O)c1ccc[nH]1 [Compound 25, 18-Deoxy-18-oximino-8-O-1H-pyrrole-2′-carbonylbranimycin]
[1]; ATCC25923, read-out: MIC Sa26 + 10% SH, S. aureus Sa26 + 10% SH
  MIC: 0.5 µg/mL
[1]; ATCC25923, read-out: MIC Sa26 + 50% SH, S. aureus Sa26 + 50% SH
  MIC: 1 µg/mL
[1]; ATCC25923, S. aureus Sa26 ATCC 25923, sensitive strain, Mueller-Hinton Broth, 37° C., read-out: MIC Sa26
  MIC: 0.5 µg/mL (≈ 0.849 µM)
[2]
  MIC: ≤ 0.06 µg/mL
[3]
  MIC: 0.5 µg/mL (≈ 0.849 µM)
[4]
  MIC: > 64 µg/mL
E. coli Ec1 ATCC 25922; ATCC25922, E. coli Ec1 ATCC 25922, sensitive strain, read-out: MIC Ec1
  MIC: > 64 µg/mL
[5]
  MIC: > 64 µg/mL
S. aureus Sa1 ATCC 13709; ATCC13709, S. aureus Sa1 ATCC 13709, sensitive strain, Mueller-Hinton Broth, 37° C., read-out: MIC Sa1
  MIC: 0.25 µg/mL (≈ 0.425 µM)
[6]
  MIC: 0.25 µg/mL (≈ 0.425 µM)
[7]
  MIC: > 64 µg/mL
S. aureus Sa4 NCTC 6571; NCTC6571, S. aureus Sa4 NCTC 6571, sensitive strain, read-out: MIC Sa4
  MIC: 0.25 µg/mL (≈ 0.425 µM)
DNA III Polymerase E
  IC50: 1.7 to 17 µM
[11]; Study 1, 50 mg/kg PO BID, sample 24 h post infection, lung, read-out: Log reduction vs. untreated
  log reduction at 50 mg/kg: 0.36
[11]; [14]
  Active: N
[9]
  MIC: > 64 µg/mL
[10]
  IC50: 1.7 to 1700 nM

## C[C@H]1COc2c(N3CCN(C)CC3)c(F)cc3c(=O)c(C(=O)O)cn1c23 [Levofloxacin, reference compound]
[12]; Study 2, 50 mg/kg PO BID
  Active: N
  Log reduction vs. untreated: −1.00
[11]; po, 24 h, read-out: Log reduction vs. untreated, Study 1, 50 mg/kg PO BID, sample 24 h post infection, lung
  log reduction at 50 mg/kg: 0.32
[11]; po, 24 h, read-out: Log reduction vs. untreated, Study 2, 50 mg/kg PO BID, sample 24 h post infection, lung
  log reduction at 50 mg/kg: 0.55
[11]; po, 24 h, read-out: Log reduction vs. untreated, Study 3, 50 mg/kg PO BID, sample 24 h post infection, lung
  log reduction at 50 mg/kg: -1.17
[11]; [14]
  Active: N
[11]; Study 2, 50 mg/kg PO BID, sample 24 h post infection, lung
  Active: N
[11]; Study 3, 50 mg/kg PO BID, sample 24 h post infection, lung
  Active: N

## CN[C@H](CC(C)C)C(=O)N[C@H]1C(=O)N[C@@H](CC(N)=O)C(=O)N[C@H]2C(=O)N[C@H]3C(=O)N[C@H](C(=O)N[C@H](C(=O)O)c4cc(O)cc(O)c4-c4cc3ccc4O)[C@H](O)c3ccc(c(Cl)c3)Oc3cc2cc(c3O[C@@H]2O[C@H](CO)[C@@H](O)[C@H](O)[C@H]2O[C@H]2C[C@](C)(N)[C@H](O)[C@H](C)O2)Oc2ccc(cc2Cl)[C@H]1O [Vancomycin]
[12]; Study 1, 50 mg/kg SC BID
  Active: Y
  Log reduction vs. untreated: −3.59
[8]; [15]
  Active: Y
  Log reduction vs. untreated: −4.01
[8]; [16]
  Active: Y
  Log reduction vs. untreated: −2.57
[8]; [17]
  Active: Y
  Log reduction vs. untreated: −1.52
[8]; [18]
  Active: Y
  Log reduction vs. untreated: −3.96
[8]; [19]
  Active: Y
  Log reduction vs. untreated: −4.27
[8]; [20]
  Active: Y
  Log reduction vs. untreated: −3.2
[11]; sc, 24 h, read-out: Log reduction vs. untreated
  log reduction at 50 mg/kg: 2
[11]; Study 1, 50 mg/kg SC BID, sample 24 h post infection, lung
  Active: Y
